Test results: patent US7935706B2, “Nitrogen-containing heterocycle derivatives substituted with cyclic group” (Shionogi & Co., Ltd., priority 2006, dated 2011)
Like-named read-outs stand apart in the source and are kept apart here.

Experiments:
[1] = target: T1, NMDA receptor (NR1 subunit and NR2B subunit) (Mus musculus, UniProt P35438+Q01097); assay: Measurement of expression of NMDA receptor and Ca ion influx amount (glutamic acid/glycine-induced, HEK293 cell co-expressing NR1 and NR2B subunits, Fluo-3/AM); type: cell-based
T1 construct: expressed in transfected cells; host or cells: HEK293 cells, transient transfection with pcDNA3.1 plasmids
T1 sequence (Q01097 27-1482, other chains not shown): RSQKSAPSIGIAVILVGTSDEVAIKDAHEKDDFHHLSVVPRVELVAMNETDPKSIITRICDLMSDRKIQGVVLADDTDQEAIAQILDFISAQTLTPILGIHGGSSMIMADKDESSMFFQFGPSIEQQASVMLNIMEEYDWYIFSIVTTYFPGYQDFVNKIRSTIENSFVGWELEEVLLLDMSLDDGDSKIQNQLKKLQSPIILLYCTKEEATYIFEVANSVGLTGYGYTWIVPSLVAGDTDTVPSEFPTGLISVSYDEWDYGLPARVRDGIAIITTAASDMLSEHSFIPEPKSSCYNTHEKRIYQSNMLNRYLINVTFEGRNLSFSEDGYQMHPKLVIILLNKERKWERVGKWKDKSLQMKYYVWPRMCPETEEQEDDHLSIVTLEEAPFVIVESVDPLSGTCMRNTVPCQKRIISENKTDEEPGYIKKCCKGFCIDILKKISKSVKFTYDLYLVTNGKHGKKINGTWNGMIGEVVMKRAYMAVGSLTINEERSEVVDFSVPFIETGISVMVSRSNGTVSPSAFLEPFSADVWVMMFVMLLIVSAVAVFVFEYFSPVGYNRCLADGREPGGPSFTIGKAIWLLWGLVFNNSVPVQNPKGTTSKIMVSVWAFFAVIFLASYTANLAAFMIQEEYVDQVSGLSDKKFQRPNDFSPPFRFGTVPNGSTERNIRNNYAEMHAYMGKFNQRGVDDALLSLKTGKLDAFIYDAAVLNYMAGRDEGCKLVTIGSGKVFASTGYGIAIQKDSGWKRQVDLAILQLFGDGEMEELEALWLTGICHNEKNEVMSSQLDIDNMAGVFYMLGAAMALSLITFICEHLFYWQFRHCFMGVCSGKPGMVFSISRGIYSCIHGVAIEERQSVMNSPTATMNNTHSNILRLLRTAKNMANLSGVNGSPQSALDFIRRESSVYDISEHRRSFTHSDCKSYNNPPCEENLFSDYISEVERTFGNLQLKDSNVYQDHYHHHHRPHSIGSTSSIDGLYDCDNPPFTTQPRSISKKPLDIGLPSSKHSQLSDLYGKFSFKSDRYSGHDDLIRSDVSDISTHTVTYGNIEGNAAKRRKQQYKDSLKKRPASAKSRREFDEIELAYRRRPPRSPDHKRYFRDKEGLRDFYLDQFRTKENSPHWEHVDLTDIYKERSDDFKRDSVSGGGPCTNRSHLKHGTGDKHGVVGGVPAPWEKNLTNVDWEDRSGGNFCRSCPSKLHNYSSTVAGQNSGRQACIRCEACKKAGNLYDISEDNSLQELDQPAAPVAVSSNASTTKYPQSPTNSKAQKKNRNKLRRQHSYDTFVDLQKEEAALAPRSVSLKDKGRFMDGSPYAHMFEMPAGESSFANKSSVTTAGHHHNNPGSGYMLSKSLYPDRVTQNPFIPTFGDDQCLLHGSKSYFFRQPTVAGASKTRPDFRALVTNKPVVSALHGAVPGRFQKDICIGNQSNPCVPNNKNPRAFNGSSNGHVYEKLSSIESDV
Protocol: Measurement of Expression of NMDA Receptor and Ca Ion Influx Amount
A complementary DNA (cDNA) of a mouse NMDA receptor subunit was transiently introduced into a HEK293 cell and, after 1 day from introduction, change in a glutamic acid/glycine-induced intracelluar Ca amount was measured using a Ca ion reactive fluorescent coloring matter.
The HEK293 cell was cultured, and passaged using a modified Dulbecco's Eagle medium (DMEM, low glucose).
The HEK293 cell (20,000/well) was seeded on a 96-well plate, a NR1 subunit and a NR2B subunit of the NMDA receptor incorporated into the pcDNA3.1 plasmid were transiently introduced into a cell, and the subunits were co-expressed. An introduction amount of a DNA was 0.025 μg in the case of the NR1 subunit, and 0.075 μg in the case of NR2B subunit per well. For the cell after introduction, cell death was inhibited using 50 μM of the NMDA receptor antagonist MK-801.
For adjusting a test compound and washing a cell, Krebs/Ringer/Hepes buffer (KRH, Ca: 5 mM) was used.
After 1 day from introduction, the NMDA receptor antagonist MK-801 was washed out using the KRH buffer, and a Ca ion indication fluorescent coloring matter Fluo-3/AM was made to be taken into the cell. Ca ion influx was induced with 20 μM glutamic acid/2 μM glycine. Change in a fluorescent amount due to Ca ion influx into the cell was measured at excitation of 480 nm using a fluorescent imaging system FDSS 3000.
From a measured value of the test compound, a Ca ion influx inhibition rate (%) was obtained by the following equation, and a dose at which influx is inhibited 50% (IC50) was calculated.
Ca ion influx inhibition rate(%)=100−[(fluorescent amount in the presence of test compound−background fluorescent amount)/(total fluorescent amount−background fluorescent)]×100

NR1/NR2B receptor = target: T2, NR1/NR2B receptor (Rattus norvegicus, UniProt P35439+Q00960); assay: Test of binding with NMDA receptor (NR1/NR2B receptor): competition with [3H]-Ifenprodil on rat cerebral cortex membrane specimen
T2 construct: from tissue; host or cells: rat cerebral cortex membranes (male Slc: Wistar rat)
T2 sequence (Q00960 27-1482, other chains not shown): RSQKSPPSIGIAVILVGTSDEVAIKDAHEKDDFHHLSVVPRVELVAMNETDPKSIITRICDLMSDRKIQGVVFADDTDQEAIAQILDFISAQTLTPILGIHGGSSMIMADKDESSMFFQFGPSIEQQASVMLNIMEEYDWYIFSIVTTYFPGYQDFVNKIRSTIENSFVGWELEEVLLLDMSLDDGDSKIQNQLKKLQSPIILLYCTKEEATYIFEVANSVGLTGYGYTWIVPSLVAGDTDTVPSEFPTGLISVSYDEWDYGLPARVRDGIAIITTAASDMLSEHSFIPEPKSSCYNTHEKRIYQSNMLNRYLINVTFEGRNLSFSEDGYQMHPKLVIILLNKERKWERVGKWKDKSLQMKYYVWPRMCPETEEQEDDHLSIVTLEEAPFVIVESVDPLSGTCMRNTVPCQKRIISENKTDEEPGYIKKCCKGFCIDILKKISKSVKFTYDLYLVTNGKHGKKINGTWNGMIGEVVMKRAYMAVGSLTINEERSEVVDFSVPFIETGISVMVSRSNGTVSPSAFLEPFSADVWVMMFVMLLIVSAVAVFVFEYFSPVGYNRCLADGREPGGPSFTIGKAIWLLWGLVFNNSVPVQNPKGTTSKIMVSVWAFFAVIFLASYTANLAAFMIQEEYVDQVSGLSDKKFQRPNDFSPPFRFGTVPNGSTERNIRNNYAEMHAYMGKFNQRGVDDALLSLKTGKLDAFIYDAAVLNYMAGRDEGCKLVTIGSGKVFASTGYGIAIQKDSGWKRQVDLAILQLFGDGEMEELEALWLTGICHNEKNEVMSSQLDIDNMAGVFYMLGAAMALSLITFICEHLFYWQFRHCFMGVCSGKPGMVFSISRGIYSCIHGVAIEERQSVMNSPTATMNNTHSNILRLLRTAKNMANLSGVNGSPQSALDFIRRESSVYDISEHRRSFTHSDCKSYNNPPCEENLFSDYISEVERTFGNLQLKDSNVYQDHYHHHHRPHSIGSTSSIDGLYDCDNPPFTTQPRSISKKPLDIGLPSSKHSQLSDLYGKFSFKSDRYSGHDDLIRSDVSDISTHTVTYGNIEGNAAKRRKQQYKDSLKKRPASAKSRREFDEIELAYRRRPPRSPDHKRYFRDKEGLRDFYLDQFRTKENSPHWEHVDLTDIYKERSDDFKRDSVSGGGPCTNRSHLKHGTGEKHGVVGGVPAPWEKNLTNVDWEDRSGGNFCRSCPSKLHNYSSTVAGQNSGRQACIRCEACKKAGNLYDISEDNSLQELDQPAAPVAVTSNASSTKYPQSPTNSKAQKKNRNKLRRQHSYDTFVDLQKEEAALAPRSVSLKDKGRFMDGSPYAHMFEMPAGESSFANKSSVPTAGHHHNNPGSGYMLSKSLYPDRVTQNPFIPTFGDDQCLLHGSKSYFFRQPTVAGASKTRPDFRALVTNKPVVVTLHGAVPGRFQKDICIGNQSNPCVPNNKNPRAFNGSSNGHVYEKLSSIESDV
Protocol: Test of Binding with NMDR Receptor (NR1/NR2B Receptor)
Using Ifenprodil which is an antagonist specific for a NR1/NR2B subtype receptor as a ligand, an experiment of competition between a receptor and a test compound was performed.
Using a male Slc: Wistar rat as an animal, a brain was isolated after decapitation, and a cerebral cortex was fractionated. The cerebral cortex was homogenized with a 20-fold amount of an ice-cooled 50 mM Tris/HCl buffer (pH 7.4), and the homogenate was centrifuged at 4° C. and 27,500×g for 10 minutes. The resulting precipitate was suspended in the same buffer, and this was again centrifuged. This operation was repeated for three times, the resulting precipitate was suspended in a buffer, and this was stored at −80° C. Immediately before an experiment, the frozen suspension was thawed at room temperature, this was centrifuged at 4° C. and 27,500×g for 10 minutes, and the resulting precipitate was suspended in a buffer. Further, the suspension was diluted 10-fold with a buffer, and this was used as a membrane specimen in an experiment. In a binding experiment, to 470 μl of the membrane specimen were added […] of each of test compounds having different concentrations, 10 μl of a labeled ligand [^3H]-Ifenprodil and 10 μl GBR-12909, followed by incubation at an ice temperature for 120 minutes. A concentration of [^3H]-Ifenprodil of the labeled ligand was finally 5 nM, and a concentration of GBR-12909 was finally 3 μM. For measuring a total binding amount, DMSO as a solvent was used and, for measuring a non-specific binding amount, 100 μM Ifenprodil was used. GBR-12909 was added in order to block binding of [^3H]-Ifenprodil to non-polyamine-sensitive site. After incubation, a bound formand a free foramwere separated using Whatman GF/C filter (manufactured by Whatman), and the filter was washed with 2.5 ml ice-cooled buffer four times. The filter was immersed in liquid scintillation (Cryasol I, manufactured by Nacalai tesque), and radioactivity (dpm) was measured with a liquid scintillation counter. From a measured value, a binding inhibition rate (%) was obtained by the following equation, and a dose at which binding is inhibited 50% (IC50) was calculated. A formula of GBR-12909 (vanoxerine) is shown below.
Binding inhibition rate(%)=100−[(binding amount in the presence of test compound−non-specific binding amount)/(total binding amount−non-specific binding amount)]×100

[2] = Ca ion influx induced with 20 μM glutamic acid/2 μM glycine, HEK293 cell with mouse NR1/NR2B, read-out: Ca2+ IC50
[3] = [3H]-Ifenprodil 5 nM, GBR-12909 3 μM, rat cerebral cortex membranes, ice temperature 120 minutes, read-out: NR2B (IC50 μM)
[4] = same binding test, read-out: IC50 (binding with NR1/NR2B receptor)
[5] = same Ca ion influx test, read-out: IC50 (Ca ion influx inhibition)

SMILES | IC50 [1, 2] [nM] | IC50 (NR1/NR2B receptor; [3]) [µM] | further results
O=C(CCC1CCN(c2ccc(C(F)(F)F)cc2)CC1)Nc1ccc(=O)[nH]c1 [Compound I-21] | 37 | 0.096 | 
O=C(Nc1ccc2[nH]c(=O)oc2c1)NC1CCN(c2ccc(C(F)(F)F)cc2)CC1 [Compound I-23] | 25 | 0.04 | 
O=C(Nc1ccc2[nH]c(=O)oc2c1)C(=O)C1CCN(c2ccc(C(F)(F)F)cc2)CC1 [Compound I-26] | 48 |  | 
O=C(CC1(O)CCN(c2ccc(C(F)(F)F)cc2)CC1)Nc1ccc2[nH]c(=O)oc2c1 [Compound I-30] | 4 | 0.077 | 
O=C(CC1(O)CCN(c2ccc(Cl)cc2)CC1)Nc1ccc2[nH]c(=O)oc2c1 [Compound I-34] | 20 |  | 
CC(C)c1ccc(N2CCC(O)(CC(=O)Nc3ccc4[nH]c(=O)oc4c3)CC2)cc1 [Compound I-40] | 15 |  | 
O=C(C=C1CCN(c2cc(C(F)(F)F)ccn2)CC1)Nc1ccc2[nH]c(=O)oc2c1 [Compound I-41] | 92 |  | 
O=C(C=C1CCN(c2ccc(C(F)(F)F)cn2)CC1)Nc1ccc2[nH]c(=O)oc2c1 [Compound I-43] | 9 | 0.017 | 
O=C(C=C1CCN(c2ccc(Cl)cn2)CC1)Nc1ccc2[nH]c(=O)oc2c1 [Compound I-45] | 23 |  | IC50 (NR1/NR2B receptor; [4]): ≤ 0.1 µM
O=C(CC1(O)CCN(c2ccc(C(F)(F)F)cc2)CC1)Nc1ccc2[nH]c(=O)sc2c1 [Compound I-70] | 15 | 0.068 | 
O=C(Nc1cnc2[nH]c(=O)oc2c1)C(=O)N1CCN(c2ccc(Cl)cc2)CC1 [Compound I-76] |  |  | IC50 [1, 5]: ≤ 100 nM
O=C(Nc1ccc2[nH]c(=O)[nH]c2c1)C(=O)N1CCN(c2ccc(C(F)(F)F)cc2)CC1 [Compound I-79] | 2 | 0.013 | 
O=C(CC1(O)CCN(c2ccc(F)c(C(F)(F)F)c2)CC1)Nc1ccc2[nH]c(=O)sc2c1 [Compound I-80] | 52 |  | 
O=C(Nc1ccc2[nH]c(=O)[nH]c2c1)C(=O)N1CCN(c2ccc(Cl)cc2)CC1 [Compound I-84] | 11 |  | IC50 (NR1/NR2B receptor; [4]): ≤ 0.1 µM
O=C(Nc1ccc2[nH]c(=O)[nH]c2c1)C(=O)N1CCN(c2ccc(F)cc2)CC1 [Compound I-85] |  | 0.067 | 
O=C(Nc1ccc2[nH]c(=O)oc2c1)C(=O)N1CCN(c2cccc(Cl)c2)CC1 [Compound I-86] |  |  | IC50 (NR1/NR2B receptor; [4]): ≤ 0.1 µM; IC50 [1, 5]: ≤ 100 nM

SMILES | IC50 [1, 2] [nM] | IC50 (NR1/NR2B receptor; [3]) [µM] | further results
O=C(Nc1cnc2[nH]c(=O)oc2c1)C(=O)N1CCN(c2ccc(F)c(Cl)c2)CC1 [Compound I-111] |  |  | IC50 [1, 5]: ≤ 100 nM
O=C(NCC1CCN(c2ccc(OC(F)(F)F)cc2)CC1)c1ccc2[nH]c(=O)oc2c1 [Compound I-122] | 24 |  | 
O=C(NCC1CCN(c2ccc(Cl)c(Cl)c2)CC1)c1ccc2[nH]c(=O)oc2c1 [Compound I-138] | 44 |  | 
O=C(NCC1CCN(c2ccc(Cl)c(F)c2)CC1)c1ccc2[nH]c(=O)oc2c1 [Compound I-140] | 44 |  | 
O=C(Nc1cnc2[nH]c(=O)oc2c1)C(=O)N1CCCN(c2ccc(Cl)c(F)c2)CC1 [Compound I-155] | 53 |  | 
C[C@H]1CN(C(=O)C(=O)Nc2ccc3[nH]c(=O)oc3c2)CCN1c1ccc(Cl)cc1 [Compound I-176] |  |  | IC50 [1, 5]: ≤ 100 nM
O=C(C=C1CCN(c2ccc(Cl)c(F)c2)CC1)Nc1ccc2[nH]c(=O)oc2c1 [Compound I-188] |  | 0.021 | 
O=C(CC1(O)CCN(c2ccc(Cl)c(Cl)c2)CC1)Nc1cnc2[nH]c(=O)oc2c1 [Compound I-197] | 59 |  | 
O=C1Cc2cc(NC(=O)C(=O)N3CCN(c4ccc(C(F)(F)F)c(F)c4)CC3)ccc2N1 [Compound I-201] |  | 0.074 | 
C[C@@H]1CN(C(=O)C(=O)Nc2ccc3[nH]c(=O)oc3c2)CCN1c1ccc(OC(F)(F)F)cc1 [Compound I-212] |  |  | IC50 [1, 5]: ≤ 100 nM
O=C(CC1CCN(c2ccc(OC(F)(F)F)cc2)CC1)Nc1ccc2[nH]c(=O)oc2c1 [Compound I-226] |  |  | IC50 (NR1/NR2B receptor; [4]): ≤ 0.1 µM
COc1ccc(N2CCN(C(=O)C(=O)Nc3ccc4[nH]c(=O)oc4c3)CC2)cc1F [Compound I-232] |  |  | IC50 (NR1/NR2B receptor; [4]): ≤ 0.1 µM
O=C(CN1CCN(c2ccc(C(F)(F)F)cc2)CC1)Nc1ccc2[nH]c(=O)oc2c1 [Compound I-235] |  |  | IC50 (NR1/NR2B receptor; [4]): ≤ 0.1 µM
O=C(CC1CCN(c2ccc(OC(F)F)cc2)CC1)Nc1ccc2[nH]c(=O)oc2c1 [Compound I-239] |  |  | IC50 (NR1/NR2B receptor; [4]): ≤ 0.1 µM
C[C@@H]1CN(c2ccc(Cl)cn2)CCN1C(=O)C(=O)Nc1ccc2[nH]c(=O)oc2c1 [Compound I-241] |  |  | IC50 (NR1/NR2B receptor; [4]): ≤ 0.1 µM

The next lines start with results.

IC50 [1, 2] [nM] | IC50 (NR1/NR2B receptor; [3]) [µM] | SMILES | further results
48 |  | O=C(CC1CCN(c2ccc(C(F)(F)F)cc2)CC1)Nc1ccc2[nH]c(=O)oc2c1 [Compound I-8] | 
69 |  | O=C(NCC1CCN(c2ccc(C(F)(F)F)cc2)CC1)c1ccc2[nH]c(=O)oc2c1 [Compound I-11] | 
37 |  | O=C(C=C1CCN(c2ccc(C(F)(F)F)cc2)CC1)Nc1ccc2[nH]c(=O)oc2c1 [Compound I-16] | 
63 |  | O=C(Nc1ccc2[nH]c(=O)oc2c1)C(O)C1CCN(c2ccc(C(F)(F)F)cc2)CC1 (stereo not drawn) [Compound I-25] | 
37 |  | O=C(C=C1CCN(c2ccc(F)cc2)CC1)Nc1ccc2[nH]c(=O)oc2c1 [Compound I-33] | 
13 | 0.107 | O=C(Nc1ccc2[nH]c(=O)oc2c1)C(F)=C1CCN(c2ccc(C(F)(F)F)cc2)CC1 [Compound I-42] | 
67 |  | O=C(CC1=CCN(c2ccc(C(F)(F)F)cc2)CC1)Nc1ccc2[nH]c(=O)oc2c1 [Compound I-53] | 
7 | 0.025 | O=C(Nc1ccc2[nH]c(=O)oc2c1)C(=O)N1CCN(c2ccc(C(F)(F)F)cc2)CC1 [Compound I-55] | 
8 | 0.015 | O=C(Nc1ccc2[nH]c(=O)oc2c1)C(=O)N1CCN(c2ccc(Cl)cc2)CC1 [Compound I-73] | 
39 |  | O=C(Nc1cnc2[nH]c(=O)oc2c1)C(=O)N1CCN(c2ccc(C(F)(F)F)cc2)CC1 [Compound I-74] | 
31 |  | O=C(NCC1=CCN(c2ccc(C(F)(F)F)cc2)CC1)c1ccc2[nH]c(=O)sc2c1 [Compound I-78] | 
62 |  | O=C(CC1(O)CCN(c2ccc(F)c(C(F)(F)F)c2)CC1)Nc1ccc2[nH]c(=O)oc2c1 [Compound I-81] | 
 | 0.012 | O=C(Nc1ccc2[nH]c(=O)oc2c1)C(=O)N1CCN(c2ccc(Br)cc2)CC1 [Compound I-87] | IC50 [1, 5]: ≤ 100 nM
87 |  | O=C(Nc1ccc2[nH]c(=O)sc2c1)C(=O)N1CCN(c2ccc(F)cc2)CC1 [Compound I-89] | 
51 |  | O=C(Nc1cnc2[nH]c(=O)oc2c1)C(=O)N1CCN(c2ccc(Br)cc2)CC1 [Compound I-94] | 
9 |  | O=C(Nc1ccc2[nH]c(=O)oc2c1)C(=O)N1CCN(c2ccc(F)c(Cl)c2)CC1 [Compound I-110] | 
 | 0.052 | O=C(C=C1CCN(c2ccc(F)c(F)c2)CC1)Nc1ccc2[nH]c(=O)oc2c1 [Compound I-192] | 
 | 0.073 | O=C(Nc1ccc2[nH]c(=O)oc2c1)C(=O)N1CCN(c2ccc(C(F)(F)F)nc2)CC1 [Compound I-198] | 
 | 0.081 | O=C1Cc2cc(NC(=O)C(=O)N3CCN(c4ccc(Cl)c(F)c4)CC3)ccc2N1 [Compound I-200] | 
